# Read-outs that look alike come from different tables or passages of the source.
# Tests used:
# [1] = tested on: Env 134-specific T cell line; assay: Env 134-specific T cell line (stimulated five times with the immunizing peptide): recognition and titration of variant peptides; format: cell-based, mouse; conditions: Env 134 line; for Peptide concentration at which any IFN-γ secretion was detected: highest peptide concentration examined; for Enrichment of CTL able to recognize the peptide: one versus five stimulations; for Affinity reduced from the parent peptide: peptide titration
# [2] = tested on: Gag 386-specific T cell line; assay: Gag 386-specific T cell line (stimulated five times with the immunizing peptide): recognition and titration of variant peptides; format: cell-based, mouse; conditions: Gag 386 line; for Peptide affinity (titration against CTL stimulated 5 times with the parent peptide): IFN-γ
# Source text: Recognition after multiple restimulations The observed recognition of variant peptides by CTL raised against the parent peptide might be due to either promiscuous recognition at the level of a single TCR or simply a mixture of TCRs against the immunizing peptide which are each able to recognize subtly different peptides. To distinguish between these two possibilities, Env 134- or Gag 386-specific T cell lines were generated by stimulating five times with the immunizing peptide, and then tested for recognition of a partial panel of variant peptides. These T cell lines were also characterized for Vβ TCR usage against a panel of antibodies predicted to react with the TCR of the mouse strains utilized for these experiments.
# Because the SU is a measure of the number of cells needed to secrete a defined amount of IFN-γ, a higher SU value would correspond to an enrichment of IFN-γ, producing cells.
# Both lines were also characterized with regard to the affinity of certain of the variant peptides by titrating the variant peptides examined above (Table 5A and 5B).
# Gag 271 variants = assay: Gag 271 variant immunogenicity tested using HLA-A2 transgenic mice; format: in vivo; conditions: 167 HIV variants
# Source text: This particular group of 21 epitopes was selected based on their identity conservation in Clade B HIV sequences, with conservation across HIV clades as a secondary consideration. Because of this criteria, the form of epitope chosen as the parent peptide was not the most common variant (e.g. Gag 386, Gag 271, Pol 98). In some cases (e.g., see Gag 386 data), the “parent” epitope and the most common variant were recognized to the same extent. However, in some cases the selection of epitope to include as the “parent” epitope was predicted to make a difference in the immunological conservation. An example of this was the Gag 271 epitope (FIG. 4). The variant most commonly seen in clade B sequences was the […] form, while the most common form of the epitope was […]. Not all amino acids are considered equal to each other in their ability to substitute (Tangri). For example, asparagine (N) is considered a conservative substitution for serine (S), while the opposite substitution in only considered semi-conserved. When the program calculated immunological conservation using the […] peptide as the parent peptide, only two variants were predicted to be immunogenic. […] This prediction was tested using HLA-A2 transgenic mice. […] This has important implications in epitope selection for vaccine development, and epitope performance can be predicted.
# HLA-DR molecules = conditions: cited from earlier work
# normal human T cells = format: cell-based
# [3] = tested on: CTL primed against the parent peptide; assay: Recognition of variant peptides by CTL from DNA-immunized HLA-A11/K^b transgenic mice (IFN-γ secretion after restimulation of splenocytes); format: cell-based; conditions: parent Pol 98
# Source text: Variants corresponding to five HLA-A2 and -A3 restricted epitopes from 167 HIV varianst were identified and synthesized. These represented all the complete sequences in the Los Alamos database at the time (116 strains), as well as 51 complete clade C sequences from Botswana, and included 22 subtype B and 62 subtype C sequences. These peptides were then characterized with regard to MHC binding, variant distribution, and immunogenicity. To measure immunogenicity, HLA-A2/K^b or HLA-A11/K^b transgenic mice were immunized with the epitopes encoded in a DNA based format ( ). Eleven days after immunization, splenocytes were restimulated with either the epitope corresponding to the epitope encoded by the DNA (parent) or each of the variant peptides. After 6 days in culture, IFN-γ secretion was measured in response to the peptide used to stimulate each culture.
# [4] = tested on: patients with recurrent or residual cervical carcinoma; conditions: co-emulsified with HPV-derived CTL epitopes, cited from earlier work
substance,measurement,setting,value
ELTPLCVTL [Env 134 variant],Activity as measured by SU after five restimulations,[1],lowest activity
same,Peptide concentration at which any IFN-γ secretion was detected,[1],1 µg/mL
same,Enrichment of CTL able to recognize the peptide,[1],little or no enrichment
ILAEAMSKA [Gag 386 variant],"Recognition of variant peptides (SU, IFN-γ), one versus five peptide stimulations",[2],never recognized
same,Peptide affinity (titration against CTL stimulated 5 times with the parent peptide),[2],not recognized
KITPLCVTL [Env 134 variant],Affinity reduced from the parent peptide,[1],approximately 10 fold
KLTPFCVTL [Env 134 variant],Activity as measured by SU after five restimulations,[1],lowest activity
same,Peptide concentration at which any IFN-γ secretion was detected,[1],1 µg/mL
same,Enrichment of CTL able to recognize the peptide,[1],little or no enrichment
KLTPLCVIL [Env 134 variant],Activity as measured by SU after five restimulations,[1],lowest activity
same,Peptide concentration at which any IFN-γ secretion was detected,[1],1 µg/mL
same,Enrichment of CTL able to recognize the peptide,[1],little or no enrichment
KLTPLCVPL [Env 134 variant],Activity as measured by SU after five restimulations,[1],lowest activity
same,Peptide concentration at which any IFN-γ secretion was detected,[1],1 µg/mL
same,Enrichment of CTL able to recognize the peptide,[1],little or no enrichment
MTNNPPIPV,Variants that would be recognized if this form of the peptide was utilized in vaccines,Gag 271 variants,39 of 167 variants
MTSNPPIPV,Variants that would be recognized if this form of the peptide was utilized in vaccines,Gag 271 variants,approximately 152 of 167 variants
QITPLCVTL [Env 134 variant],Activity as measured by SU after five restimulations,[1],lowest activity
same,Peptide concentration at which any IFN-γ secretion was detected,[1],1 µg/mL
same,Enrichment of CTL able to recognize the peptide,[1],little or no enrichment
QLTPLCVTL [Env 134 variant],Affinity reduced from the parent peptide,[1],~100 fold
QYIKANSKFIGITE [TT 830-843],DR molecules bound,HLA-DR molecules,seven
same,"Antigen concentration at which the 10,000 cpm proliferation level was reached",normal human T cells,"about 10,000 ng/ml"
same,Donors with primary T cell responses,normal human T cells,2
VLAEAMSQI [Gag 386 single anchor variant],Peptide affinity (titration against CTL stimulated 5 times with the parent peptide),[2],highest affinity
VLAEAMSQV [Gag 386],Peptide affinity (titration against CTL stimulated 5 times with the parent peptide),[2],highest affinity
VSIKVGGQIK,Recognition relative to the parent peptide,[3],≤ 10 fold
aKXVAAWTLKAAa-NH2 [PADRE®],"Potency relative to TT 830-843 antigen for activation of T cell responses, on a molar basis",normal human T cells,about 100 fold
same,Donors with primary T cell responses,normal human T cells; three normal donors tested,three
same,Safety,[4],favorable safety profile
same,Patients in whom PADRE T cell reactivity was detected,[4]; immunocompromised patients,four

# — patent publication US20070054262A1, “Methods of identifying optimal variants of peptide epitopes” (priority 2003, published 2007)
